# Experimental data taken from ChEMBL document CHEMBL1126387, “Use of transferred nuclear overhauser effects to determine the conformation of 1-(3,4-dichlorophenyl)-2-aminopropane when bound to the active site of phenylethanolamine N-methyltransferace (PNMT)” (Bioorg Med Chem Lett, 1992).
# Target: T1, Phenylethanolamine N-methyltransferase (Bos taurus, UniProt P10938)
# T1 sequence (P10938 whole entry): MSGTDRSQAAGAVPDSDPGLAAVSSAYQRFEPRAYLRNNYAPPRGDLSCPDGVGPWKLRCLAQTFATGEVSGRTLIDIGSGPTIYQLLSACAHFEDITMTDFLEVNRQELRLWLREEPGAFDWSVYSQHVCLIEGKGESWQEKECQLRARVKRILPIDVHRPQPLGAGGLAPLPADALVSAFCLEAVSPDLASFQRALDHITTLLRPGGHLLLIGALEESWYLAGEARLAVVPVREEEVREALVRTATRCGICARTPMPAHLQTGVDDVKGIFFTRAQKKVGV
# Assay: Inhibitory activity against bovine adrenal phenylethanolamine N-methyltransferase(PNMT)
smiles,measurement,value
CC(N)Cc1ccc(Cl)c(Cl)c1 (stereo unspecified),Ki,6.7 µM
